The record followed here is patent publication US20240368664A1, “LIVE YEAST BIOSENSORS AND METHODS OF USE THEREOF” (priority 2021, published 2024).

A short description of data set [1]: Metal-binding peptide absorbance scan. Type of data set: physicochemical.
The target of data set [2] is T1, Candida albicans pheromone GPCR CaSte2 (Candida albicans).
T1 sequence: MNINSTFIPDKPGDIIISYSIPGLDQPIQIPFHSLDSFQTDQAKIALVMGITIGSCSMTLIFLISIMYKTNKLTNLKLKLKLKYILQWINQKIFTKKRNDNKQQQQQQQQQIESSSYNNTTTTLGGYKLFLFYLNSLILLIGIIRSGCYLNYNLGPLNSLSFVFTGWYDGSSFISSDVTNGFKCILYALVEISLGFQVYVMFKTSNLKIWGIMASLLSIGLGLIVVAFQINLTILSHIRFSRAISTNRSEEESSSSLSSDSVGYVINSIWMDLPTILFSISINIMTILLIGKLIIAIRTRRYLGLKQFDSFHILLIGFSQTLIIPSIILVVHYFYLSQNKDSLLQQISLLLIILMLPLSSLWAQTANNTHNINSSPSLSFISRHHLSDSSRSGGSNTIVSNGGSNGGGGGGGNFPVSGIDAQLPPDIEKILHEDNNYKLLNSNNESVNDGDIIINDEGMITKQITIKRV
The experiment in a line: cell-based or functional assay.

Data set [3] shares this target. The experiment in a line: cell-based or functional assay. Also noted: EC50 compared to the native CaPep (orders of magnitude): unit not given beside the values.
For data set [4], the system named is CpSte2. In kind it is cell-based, Candida parapsilosis.
The target in data set [5] is ScSte2 (Saccharomyces cerevisiae, UniProt D6VTK4). The experiment in a line: ScSte2 biosensor dose-response, ymTurquoise2 readout, no protease (incl. ScPep alanine scan, yTC391). In kind it is cell-based. As to conditions: Hill function best-fit ± standard error.
Data set [6] deals with ScSte2 with protease ScBar1 (Saccharomyces cerevisiae, UniProt D6VTK4). In kind it is cell-based.
The target in data set [7] is T2, Candida albicans pheromone GPCR CaSte2 (Candida albicans).
T2 chain: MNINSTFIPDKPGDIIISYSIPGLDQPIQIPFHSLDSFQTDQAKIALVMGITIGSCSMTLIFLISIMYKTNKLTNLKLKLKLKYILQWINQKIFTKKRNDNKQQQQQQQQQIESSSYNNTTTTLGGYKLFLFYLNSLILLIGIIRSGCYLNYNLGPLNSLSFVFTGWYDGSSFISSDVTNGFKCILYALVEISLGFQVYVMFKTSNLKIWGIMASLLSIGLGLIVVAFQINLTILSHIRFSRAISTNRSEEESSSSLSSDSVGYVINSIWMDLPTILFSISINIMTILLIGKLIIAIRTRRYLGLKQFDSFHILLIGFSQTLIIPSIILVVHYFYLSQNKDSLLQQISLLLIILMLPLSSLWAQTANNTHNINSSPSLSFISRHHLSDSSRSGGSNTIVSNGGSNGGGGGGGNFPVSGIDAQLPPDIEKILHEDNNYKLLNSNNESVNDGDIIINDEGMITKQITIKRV
Description: cell-based or functional assay.

Where [8] appears, read: 1 mM copper, 1 mM peptide, 50 mM Tris/HCl, NaClO4 buffer.

Where “and” joins values, the source holds several entries; their conditions need not be identical. Equal entries are not always repeated. Where two headings read alike, the source gives them in different places. No end group written: not given here.

Sequence of ScSte2 (D6VTK4 whole entry): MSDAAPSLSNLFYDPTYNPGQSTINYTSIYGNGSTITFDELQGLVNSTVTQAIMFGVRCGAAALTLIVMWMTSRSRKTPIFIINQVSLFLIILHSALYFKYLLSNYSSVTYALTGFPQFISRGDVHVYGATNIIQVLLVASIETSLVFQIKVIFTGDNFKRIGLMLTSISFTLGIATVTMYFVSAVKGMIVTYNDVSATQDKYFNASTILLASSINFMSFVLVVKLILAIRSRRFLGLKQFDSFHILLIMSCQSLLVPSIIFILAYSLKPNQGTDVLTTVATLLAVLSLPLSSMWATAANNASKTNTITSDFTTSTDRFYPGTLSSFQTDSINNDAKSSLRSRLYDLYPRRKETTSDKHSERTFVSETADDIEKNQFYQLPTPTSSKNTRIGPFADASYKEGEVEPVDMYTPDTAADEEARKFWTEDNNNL
Sequence of ScSte2 with protease ScBar1 (D6VTK4 whole entry): as above

Take `O.O.[Cl][Cu][Cl]` [Copper, CuCl2×2H2O]: the absorbance peak in data set [1] (copper alone in Tris/HCl buffer) is on record as 630 nm.

On to AAH, for which the “absorbance maxima of copper complexes” value in data set [1] (setting [8]) is given as 520 nm.

On to CaPep9A10A (peptide), for which, in data set [2], the LogEC50 was -4.7 log M and -4.6 log M; the Top is 570 A.U. and 510 A.U. The EC50 compared to the native CaPep (orders of magnitude) in data set [3] stood at 2.

Take CaPep10A (peptide): in data set [2], the LogEC50 was -4.6 log M and -4.2 log M; the Top was 180 A.U. and 98 A.U. The same molecule registered an EC50 compared to the native CaPep (orders of magnitude) in data set [3] of 2.

CaPep11A (peptide): the Top in data set [2] was 180 A.U. and 120 A.U. For the same molecule, the decrease in maximal activation compared to the native CaPep in data set [3] is 50%.

As for CaPep12A13A (peptide), in data set [2], the LogEC50 is -4.8 log M and -4.5 log M; the Top was found to be 170 A.U. In data set [3], this molecule yielded an EC50 compared to the native CaPep (orders of magnitude) of 2.

With CaPep12A (peptide), in data set [2], the LogEC50 was -5.3 log M and -5 log M; the Top is 580 A.U. and 540 A.U. This molecule registered an EC50 compared to the native CaPep (orders of magnitude) in data set [3] of 2.

Regarding “DAHK (UniProt P02768 25-28, looked up, fragment)”, in data set [1] (setting [8]), the “absorbance maxima of copper complexes” value is given as 520 nm.

As for GHK, in data set [1] (setting [8]), the “absorbance maxima of copper complexes” value is given as 620 nm. Besides, in data set [1] (nickel complexes), the “absorbance peaks of nickel complexes” value is “did not show absorbance peaks”.

Turning to KKH, in data set [1] (setting [8]), the “absorbance maxima of copper complexes” value was determined as 620 nm.

By EC50 is commonly meant the concentration needed to bring the measured effect to its halfway point. As to KPHWTTYGYYEPQ [CpPep], the basal expression in data set [4] (optimized strain yTC453) is listed as about 0 A.U. In data set [4] (yMJ194, natural pathway), this molecule returned a concentration for a half-maximal effect (EC50) of about 3 nM and a maximal activation of about 250 A.U. Besides, in data set [4] (yTC453, optimized), the concentration for a half-maximal effect (EC50) is about 9 nM and the maximal activation was ~3,300 A.U.

Take PHGGGWGQ: in data set [1], the “absorbance maxima of copper complexes” value is 620 nm and the “absorbance peaks of nickel complexes” value was “did not show absorbance peaks”.

For WHWLQLAPGQPMY [ScPep7A], the “Hill Slope” value in data set [5] is 2.6 ± 0.4. For the same molecule, in data set [6], the Bottom was found to be 5.7 ± 1.3 A.U, the “Hill Slope” value amounted to 1.7 ± 0.1, the LogEC50 is −5.4 ± 0.1 M and the Top is on record as 380 ± 10 A.U.

As for WHWLQLKAGQPMY [ScPep8A], the “Hill Slope” value in data set [5] was 2.7 ± 0.1. Moreover, in data set [6], the Bottom worked out at 4.6 ± 2.6 A.U, the “Hill Slope” value was found to be 1.1 ± 0.1, the LogEC50 is listed as −5.6 ± 0.1 M and the Top is listed as 440 ± 10 A.U.

WHWLQLKPAQPMY [ScPep9A]: the “Hill Slope” value in data set [5] is 5.0 ± 1.3. Also, in data set [6], the Bottom came out at 3.7 ± 2.1 A.U, the “Hill Slope” value was determined as 1.2 ± 0.1, the LogEC50 is given as −4.8 ± 0.2 M and the Top turned out to be 440 ± 10 A.U.

On to WHWLQLKPGAPMY [ScPep10A], for which the “Hill Slope” value in data set [5] is on record as 5.3 ± 3.7. Moreover, in data set [6], the Bottom stood at 8.3 ± 1.6 A.U, the “Hill Slope” value was found to be 1.8 ± 0.1, the LogEC50 was −5.2 ± 0.1 M and the Top is recorded as 420 ± 10 A.U.

For WHWLQLKPGQAMY [ScPep11A], the “Hill Slope” value in data set [5] stood at 4.6 ± 1.3. Also, in data set [6], the Bottom is 8.0 ± 2.5 A.U, the “Hill Slope” value was 1.5 ± 0.1, the LogEC50 is on record as −5.6 ± 0.1 M and the Top is listed as 410 ± 10 A.U.

For WHWLQLKPGQPMA [ScPep13A], the “Hill Slope” value in data set [5] is given as 8.2 ± 3.1. Moreover, in data set [6], the Bottom amounted to 4.6 ± 2.5 A.U, the “Hill Slope” value is 1.2 ± 0.1, the LogEC50 was −5.1 ± 0.1 M and the Top turned out to be 490 ± 10 A.U.

For GARLTNFGYFEPG (modifications not checked) [CaPep2A], in data set [7], the EC50, ymTurquoise2, strain with the protease CaBar1 came out at 40 nM; the EC50, ymTurquoise2, strain without the protease was determined as 50 nM; the LogEC50 is -7.4 log M and -6.9 log M; the Top was 460 A.U. and 430 A.U.

For GFRLTNFGYFEPA (modifications not checked) [CaPep13A], in data set [7], the EC50, lycopene readout, strains preincubated, +CaBar1 was 1000 nM; the EC50, lycopene readout, strains preincubated, -CaBar1 was 80 nM; the Top is 820 A.U. and 590 A.U.
